Literature values, collected in US20050101642A1, “Chemical complex comprising a pyridine carboxy derivative and an H2 histamine receptor antagonist” (Astion Development ApS, priority 2000, published 2005).

Molecular target: poly(ADP-ribose)polymerase (Homo sapiens, UniProt P09874)
Sequence (P09874 whole entry): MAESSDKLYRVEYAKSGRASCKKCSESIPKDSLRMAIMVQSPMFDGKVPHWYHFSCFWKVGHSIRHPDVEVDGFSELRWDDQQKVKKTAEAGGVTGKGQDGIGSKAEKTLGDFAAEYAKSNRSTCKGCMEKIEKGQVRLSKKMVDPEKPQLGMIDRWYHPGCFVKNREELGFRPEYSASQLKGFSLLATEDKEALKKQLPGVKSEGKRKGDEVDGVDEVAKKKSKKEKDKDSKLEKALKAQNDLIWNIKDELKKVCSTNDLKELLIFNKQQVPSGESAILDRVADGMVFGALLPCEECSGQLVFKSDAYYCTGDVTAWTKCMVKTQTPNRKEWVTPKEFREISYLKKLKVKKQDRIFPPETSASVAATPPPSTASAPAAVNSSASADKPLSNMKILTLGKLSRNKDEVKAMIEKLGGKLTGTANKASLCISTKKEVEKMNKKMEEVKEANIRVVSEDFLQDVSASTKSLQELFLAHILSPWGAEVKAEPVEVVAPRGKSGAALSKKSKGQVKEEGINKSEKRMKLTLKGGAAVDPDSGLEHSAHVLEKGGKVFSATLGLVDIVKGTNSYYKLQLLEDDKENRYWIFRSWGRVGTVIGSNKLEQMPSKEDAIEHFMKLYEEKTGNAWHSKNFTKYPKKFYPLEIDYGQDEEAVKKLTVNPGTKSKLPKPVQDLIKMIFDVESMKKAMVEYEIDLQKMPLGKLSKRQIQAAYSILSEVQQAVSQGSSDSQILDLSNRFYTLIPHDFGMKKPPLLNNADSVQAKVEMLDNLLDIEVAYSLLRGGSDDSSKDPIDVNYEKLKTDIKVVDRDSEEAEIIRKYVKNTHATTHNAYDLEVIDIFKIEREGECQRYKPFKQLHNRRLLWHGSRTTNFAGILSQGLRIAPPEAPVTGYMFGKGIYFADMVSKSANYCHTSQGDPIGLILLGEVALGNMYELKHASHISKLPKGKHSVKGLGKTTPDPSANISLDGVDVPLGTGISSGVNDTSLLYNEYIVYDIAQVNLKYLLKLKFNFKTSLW

inhibition of poly(ADP-ribose)polymerase: potent inhibitor
SMILES: NC(=O)c1cccnc1 [Niacinamide]
